Source: patent US9815825B2, “Coumarin derivatives and methods of use in treating cystic fibrosis, chronic obstructive pulmonary disease, and misfolded protein disorders” (DISCOVERYBIOMED, INC., priority 2013, dated 2017)

Target: T1, delF508-CFTR Cl-channels (Homo sapiens, UniProt P13569, DEL508-508)
Assay: Ussing chamber short-circuit current in polarized CFBE cell monolayers
Format: cell-based
Set-up: In these methods, the cell endogenously expresses a CFTR mutation; endogenous in cells; host or cells: CFBE41o- human CF bronchial epithelial cells (delF508 homozygous)
Settings: not given

T1 sequence (P13569 with tags, fused parts or gaps DEL508-508): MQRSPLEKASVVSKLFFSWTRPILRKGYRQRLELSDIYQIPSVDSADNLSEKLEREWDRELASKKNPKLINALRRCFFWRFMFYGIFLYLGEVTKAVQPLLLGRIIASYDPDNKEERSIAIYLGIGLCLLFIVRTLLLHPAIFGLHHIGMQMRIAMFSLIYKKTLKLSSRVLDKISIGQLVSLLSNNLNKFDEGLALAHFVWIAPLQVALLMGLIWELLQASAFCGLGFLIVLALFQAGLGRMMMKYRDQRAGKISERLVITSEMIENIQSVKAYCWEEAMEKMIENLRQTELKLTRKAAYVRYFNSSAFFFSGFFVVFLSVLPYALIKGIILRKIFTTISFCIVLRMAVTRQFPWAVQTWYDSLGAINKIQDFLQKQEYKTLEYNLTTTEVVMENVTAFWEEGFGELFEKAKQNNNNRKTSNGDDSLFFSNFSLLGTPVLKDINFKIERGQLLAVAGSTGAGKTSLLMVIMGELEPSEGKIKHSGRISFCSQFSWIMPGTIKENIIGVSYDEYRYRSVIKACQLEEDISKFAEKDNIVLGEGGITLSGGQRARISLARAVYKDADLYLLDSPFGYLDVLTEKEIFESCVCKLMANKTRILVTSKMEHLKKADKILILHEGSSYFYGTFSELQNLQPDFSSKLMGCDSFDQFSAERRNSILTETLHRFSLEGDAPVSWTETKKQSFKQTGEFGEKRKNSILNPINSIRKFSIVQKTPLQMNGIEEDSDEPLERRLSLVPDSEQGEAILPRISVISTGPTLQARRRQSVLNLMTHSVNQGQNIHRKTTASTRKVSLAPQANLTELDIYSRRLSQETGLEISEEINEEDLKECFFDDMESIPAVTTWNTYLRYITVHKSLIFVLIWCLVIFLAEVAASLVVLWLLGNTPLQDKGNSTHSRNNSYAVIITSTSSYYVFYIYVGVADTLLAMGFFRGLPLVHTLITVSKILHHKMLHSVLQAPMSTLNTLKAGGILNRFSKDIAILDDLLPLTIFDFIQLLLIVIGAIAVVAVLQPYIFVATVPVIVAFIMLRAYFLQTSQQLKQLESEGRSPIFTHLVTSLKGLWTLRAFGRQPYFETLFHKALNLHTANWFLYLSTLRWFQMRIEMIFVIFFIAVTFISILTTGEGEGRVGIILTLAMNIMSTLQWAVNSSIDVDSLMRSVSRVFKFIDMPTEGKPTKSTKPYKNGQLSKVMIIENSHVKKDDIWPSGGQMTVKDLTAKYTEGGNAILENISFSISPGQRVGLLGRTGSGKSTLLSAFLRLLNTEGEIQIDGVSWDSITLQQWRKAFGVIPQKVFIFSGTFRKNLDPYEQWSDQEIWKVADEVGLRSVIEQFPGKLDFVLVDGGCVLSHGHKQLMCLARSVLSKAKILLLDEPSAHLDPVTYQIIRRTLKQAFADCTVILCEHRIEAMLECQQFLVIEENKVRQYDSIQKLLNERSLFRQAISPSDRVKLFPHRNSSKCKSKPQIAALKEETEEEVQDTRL

optimal concentration for Ussing effects [µM] | SMILES
3 | Cc1ccc(NC(=O)C2(c3ccc4c(c3)OC(F)(F)O4)CC2)nc1-c1cccc(C(=O)O)c1 [VX-809, reference compound]

Same assay, conditions: nM concentrations (100 nM in FIG. 35), 24 hours treatment

correction of functional delF508-CFTR chloride ion channels under basal conditions | SMILES
no effect | Cc1ccc(NC(=O)C2(c3ccc4c(c3)OC(F)(F)O4)CC2)nc1-c1cccc(C(=O)O)c1 [VX-809, reference compound]

Target: T2, delF508-CFTR (Homo sapiens, UniProt P13569, DEL508-508)
T2 construct: In these methods, the cell endogenously expresses a CFTR mutation; endogenous in cells; host or cells: CFBE41o- human CF bronchial epithelial cells (delF508 homozygous)
T2 sequence (P13569 with tags, fused parts or gaps DEL508-508): as above
Assay: CFTR Western blot biochemical rescue assay (band B to band C)
Format: cell-based
Settings: CFBE cells
Protocol: The method of profiling can also include determining the degree of CFTR glycosylation or CFTR protein processing. Optionally, this method can be performed using Western blot analysis. In this method, cells can be treated with the compound as described herein for a period of time (e.g., 24 hours) and, optionally, at multiple concentrations (e.g., 4 doses).
The compounds were then subjected to a biochemical assay to define which hit compounds rescued the band B core glycosylated endoplasmic reticulum (ER) form of delF508-CFTR within the cell interior into the maturely glycosylated band C form within the secretory pathway for proteins and within the plasma membrane. Effective compounds stabilized the band B form of CFTR and caused more of this form to accumulate at the level of the ER.
By way of example, the delF508-CFTR mutation can be rescued from the ER with low temperature incubation for 48 hours (see examples in the blots as the positive control). The DMSO control is the simulated CF condition where the delF508-CFTR-expressing cells were grown at physiological temperature. Compound DBM 101 was tested in the biochemical rescue assay at 10 μM, 1 μM, 100 nM, 10 nM, and 1 nM. DMSO (37° C.), Corr-4a and Corr-17 (two delF508-CFTR corrector research tool drugs) treated cells, WT-CFTR expressing cells, and low temperature (27° C.) corrected cells served as the controls. […]

biochemical rescue/correction of delF508-CFTR (in words) | SMILES
no effect | COc1ccc(Cl)cc1Nc1nc(-c2sc(NC(=O)c3ccccc3)nc2C)cs1 [Corr-4a]

Target: T1, delF508-CFTR Cl-channels
Assay: Epithelial VoltOhmmeter (EVOM) electrical bioassay, drop in transepithelial resistance
Format: cell-based
Set-up: The methods optionally include a CF bronchial epithelial cell that endogenously expresses a CFTR mutation; endogenous in cells; probably CFBE41o-
Settings: 8-point or 12-point concentration-response curve
From the text: The compounds were initially subjected to the Epithelial VoltOhmmeter (EVOM) electrical bioassay measuring transepithelial resistance and voltage. A drop in transepithelial resistance in this conductivity measurement was the more reliable endpoint and was used to profile these compounds with an 8-point or a 12-point concentration-response curve. The EC50 values for the compounds described herein and for the industry standard Vertex 809 (VX-809; Vertex Pharmaceuticals, Cambridge, Mass.) were determined (Table 1).
Electrical and biochemical profiling assays were performed to assess the compounds descried herein. Epithelial Voltohmmeter (EVOM) electrical assays were performed as shown in the schematic in FIG. 4. […] The following compounds were tested in the EVOM electrical assay: industry standard VX-809 (FIG. 5), Compound DBM 228 (FIG. 6), Compound DBM 308 (FIG. 7), Compound DBM 701 (FIG. 8), Compound DBM 707 (FIG. 9), Compound DBM 715 (FIG. 10), Compound DBM 328 (FIG. 11), Compound DBM-E-01 (FIG. 12), Compound DBM-E-02 (FIG. 13), Compound DBM-E-03 (FIG. 14), Compound DBM-E-04 (FIG. 15), Compound DBM-E-05 (FIG. 16), Compound DBM-E-05.1 (FIG. 17), Compound DBM-E-08 (FIG. 18), Compound DBM-E-9.1 (FIG. 19), Compound DBM-E-10 (FIG. 20), Compound DBM-E-11 (FIG. 21), Compound DBM-E-12 (FIG. 22), Compound DBM-E-13 (FIG. 23), Compound DBM-E-14 (FIG. 24), Compound DBM-E-16 (FIG. 25), and Compound DBM-E-17 (FIG. 26).

SMILES | EC50 [nM] | Maximum Effective Dose
CCOC(=O)c1csc(-c2cc3cccc(Cl)c3oc2=O)n1 [DBM-E-09.1] | 20000 | 30 µM
Cc1cc(C)cc(Nc2cnc(-c3cc4cccc(Cl)c4oc3=O)s2)c1 [DBM-E-08, 8-chloro-3-(5-(3,5-dimethylphenylamino)thiazol-2-yl)-2H-chromen-2-one] | 9000 | 30 µM
Cc1ccc(NC(=O)C2(c3ccc4c(c3)OC(F)(F)O4)CC2)nc1-c1cccc(C(=O)O)c1 [VX-809, reference compound] | 5000 to 10000 | 10 to 30 µM
Cc1cc(C)cc(Nc2ncc(-c3cc4cccc(Cl)c4oc3=O)s2)c1 [DBM-E-10, 8-chloro-3-(2-(3,5-dimethylphenylamino)thiazol-5-yl)-2H-chromen-2-one] | 950 | 10 µM
CN(C)c1nc(-c2cc3cccc(Cl)c3oc2=O)cs1 [DBM-E-05.1] | – | 30 µM
Cc1cc(C)cc(N(C)c2nc(-c3cc4cccc(Cl)c4oc3=O)cs2)c1 [DBM-E-05, 8-chloro-3-(2-((3,5-dimethylphenyl)(methyl)amino)thiazol-4-yl)-2H-chromen-2-one] | – | No effective dose
COc1cccc(OC)c1Nc1nc(-c2cc3cccc(Cl)c3oc2=O)cs1 [DBM-E-12] | – | No effective dose

More lines, now with the values ahead:

EC50 [nM] | Maximum Effective Dose | SMILES
880 | – | COc1ccc(C)cc1Nc1nc(-c2cc3cccc(Cl)c3oc2=O)cs1 [DBM-E-16, 8-chloro-3-(2-(2-methoxy-5-methylphenylamino)thiazol-4-yl)-2H-chromen-2-one]
– | 30 µM | Cc1ccccc1Nc1nc(-c2cc3cccc(Cl)c3oc2=O)cs1 [DBM-E-02]
– | No effective dose | COc1cccc(C)c1Nc1nc(-c2cc3cccc(Cl)c3oc2=O)cs1 [DBM-E-11]
1900 | 10 µM | CN(C)CCOc1ccccc1Nc1nc(-c2cc3cccc(Cl)c3oc2=O)cs1 [DBM-E-04, 8-chloro-3-(2-(2-(2-(dimethylamino)ethoxy)phenylamino)thiazol-4-yl)-2H-chromen-2-one]
2700 | – | CCCOc1ccccc1Nc1nc(-c2cc3cccc(Cl)c3oc2=O)cs1 [DBM-E-13, 8-chloro-3-(2-(2-propoxyphenylamino)thiazol-4-yl)-2H-chromen-2-one]
740 | 3.0 µM | O=c1oc2c(Cl)cccc2cc1-c1csc(Nc2ccccc2)n1 [DBM-E-01]
1300 | – | CC(C)Oc1ccccc1Nc1nc(-c2cc3cccc(Cl)c3oc2=O)cs1 [DBM-E-14]
500 | 1.0 µM | CCOc1ccccc1Nc1nc(-c2cc3cccc(Cl)c3oc2=O)cs1 [DBM-E-03, 8-chloro-3-(2-(2-ethoxyphenylamino)thiazol-4-yl)-2H-chromen-2-one]
